Assay results as given in patent US9447044B2, “Thioaryl derivatives as GPR120 agonists” (LG LIFE SCIENCES LTD., priority 2012, dated 2016).

Molecular target: T1, hGPR120 (Homo sapiens, UniProt Q5NUL3)
T1 construct: expressed in transfected cells; host or cells: CHO-K1
T1 sequence (Q5NUL3 1-361): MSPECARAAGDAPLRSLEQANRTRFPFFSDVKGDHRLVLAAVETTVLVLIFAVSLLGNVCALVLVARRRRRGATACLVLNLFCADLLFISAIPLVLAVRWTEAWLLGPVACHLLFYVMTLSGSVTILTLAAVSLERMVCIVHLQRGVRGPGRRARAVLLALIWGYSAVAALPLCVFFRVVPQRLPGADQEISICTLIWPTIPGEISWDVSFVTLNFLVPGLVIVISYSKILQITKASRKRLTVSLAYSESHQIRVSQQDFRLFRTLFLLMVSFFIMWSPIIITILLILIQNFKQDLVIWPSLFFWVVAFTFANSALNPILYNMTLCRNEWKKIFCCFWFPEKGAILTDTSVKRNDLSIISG
Assay: Measurement of activity of GPR120 agonist (cell-based assay), calcium fluorescence
Settings: CHO-K1 cells expressing Ga16 and hGPR120; Calcium 5 dye fluorescence; activity class
In short: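 CHO-K1 cells co-expressing Gα16 and hGPR120, loaded with Calcium 5 dye for 1 h at 37° C, received serially diluted agonists (final 0.5% DMSO). Fluorescence (Ex 485/Em 525 nm) was expressed as relative percent over 0.1% DMSO-only wells; activity binned as A >20 μM, B 20–2 μM, C 2–0.2 μM, D <0.2 μM.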

EC50 [nM]	SMILES
< 200	O=C(O)C1CC1c1ccc(OCc2cccc(SC3CCC3)n2)c(F)c1 (centres unmarked) [Example 86, 2-[4-(6-cyclobutylsulfanyl-pyridin-2-ylmethoxy)-3-fluoro-phenyl]-cyclopropane carboxylic acid]
200 to 2000	CC(C)Sc1ncccc1COc1ccc(C2CC2C(=O)O)c(Cl)c1 (centres unmarked) [Example 89, 2-[2-chloro-4-(2-isopropylsulfanyl-pyridin-3-ylmethoxy)-phenyl]-cyclopropane carboxylic acid]
< 200	O=C(O)C1CC1c1ccc(OCc2cccc(SC3CCC3)n2)cc1Cl (centres unmarked) [Example 90]
< 200	CC(Cc1ccc(OCc2cccnc2SCC2CC2)c(Cl)c1)C(=O)O (centres unmarked) [Example 91, 3-[3-chloro-4-(2-cyclopropylmethylsulfanyl-pyridin-3-ylmethoxy)-phenyl]-2-methyl-propionic acid]
< 200	CCCSc1ncccc1COc1ccc(CC(C)C(=O)O)cc1Cl (centres unmarked) [Example 92, 3-[3-chloro-4-(2-propylsulfanyl-pyridin-3-ylmethoxy)-phenyl]-2-methyl-propionic acid]
< 200	CC(C)Sc1cccc(COc2ccc(CC(C)C(=O)O)cc2Cl)n1 (centres unmarked) [Example 93, 3-[3-chloro-4-(6-isopropylsulfanyl-pyridin-2-ylmethoxy)-phenyl]-2-methyl-propionic acid]
< 200	CC(Cc1ccc(OCc2cccc(SC3CCCC3)n2)c(Cl)c1)C(=O)O (centres unmarked) [Example 94, 3-[3-chloro-4-(6-cyclopentylsulfanyl-pyridin-2-ylmethoxy)-phenyl]-2-methyl-propionic acid]
< 200	CC(Cc1ccc(OCc2cccc(SC3CCC3)n2)c(Cl)c1)C(=O)O (centres unmarked) [Example 96, 3-[3-chloro-4-(6-cyclobutylsulfanyl-pyridin-2-ylmethoxy)-phenyl]-2-methyl-propionic acid]
< 200	CC(C)Sc1ncccc1COc1ccc(C2CC2C(=O)O)cc1Cl (centres unmarked) [Example 97, 2-[3-chloro-4-(2-isopropylsulfanyl-pyridin-3-ylmethoxy)-phenyl]-cyclopropane carboxylic acid]
< 200	O=C(O)C1CC1c1ccc(OCc2cccc(SCC3CC3)n2)c(Cl)c1 (centres unmarked) [Example 98, 2-[3-chloro-4-(6-cyclopropylmethylsulfanyl-pyridin-2-ylmethoxy)-phenyl]-cyclopropane carboxylic acid]
< 200	CC(C)Sc1cccc(COc2ccc(C3CC3C(=O)O)cc2Cl)n1 (centres unmarked) [Example 99, 2-[3-chloro-4-(6-isopropylsulfanyl-pyridin-2-ylmethoxy)-phenyl]-cyclopropane carboxylic acid]
< 200	O=C(O)C1CC1c1ccc(OCc2cccc(SC3CCCC3)n2)c(Cl)c1 (centres unmarked) [Example 100, 2-[3-chloro-4-(6-cyclopentylsulfanyl-pyridin-2-ylmethoxy)-phenyl]-cyclopropane carboxylic acid]
< 200	O=C(O)C1CC1c1ccc(OCc2cccnc2SC2CCCC2)c(Cl)c1 (centres unmarked) [Example 101, 2-[3-chloro-4-(2-cyclopentylsulfanyl-pyridin-3-ylmethoxy)-phenyl]-cyclopropane carboxylic acid]
< 200	O=C(O)C1CC1c1ccc(OCc2cccnc2SC2CCC2)c(Cl)c1 (centres unmarked) [Example 102, 2-[3-chloro-4-(2-cyclobutylsulfanyl-pyridin-3-ylmethoxy)-phenyl]-cyclopropane carboxylic acid]
< 200	O=C(O)C1CC1c1ccc(OCc2cccc(SC3CCC3)n2)c(Cl)c1 (centres unmarked) [Example 103, 2-[3-chloro-4-(6-cyclobutylsulfanyl-pyridin-2-ylmethoxy)-phenyl]-cyclopropane carboxylic acid]
200 to 2000	O=C(O)C1CC1c1ccc(OCc2cccc(SC3CCCC3)n2)cc1Cl (centres unmarked) [Example 104]

EC50 [nM]	SMILES
2000 to 20000	Cc1c(OCc2cccnc2SC(C)C)ccc(C2CC2C(=O)O)c1C (centres unmarked) [Example 105, 2-[4-(2-isopropylsulfanyl-pyridin-3-ylmethoxy)-2,3-dimethyl-phenyl]-cyclopropane carboxylic acid]
> 20000	Cc1c(OCc2cccnc2SCC2CC2)ccc(C2CC2C(=O)O)c1C (centres unmarked) [Example 106, 2-[4-(2-cyclopropylmethylsulfanyl-pyridin-3-ylmethoxy)-2,3-dimethyl-phenyl]-cyclopropane carboxylic acid]
< 200	O=C(O)C1CC1c1ccc(OCc2cccnc2SCC2CC2)c(Cl)c1 (centres unmarked) [Example 107, 2-[3-chloro-4-(2-cyclopropylmethylsulfanyl-pyridin-3-ylmethoxy)-phenyl]-cyclopropane carboxylic acid]
< 200	CCCSc1ncccc1COc1ccc(C2CC2C(=O)O)cc1Cl (centres unmarked) [Example 108, 2-[3-chloro-4-(2-propylsulfanyl-pyridin-3-ylmethoxy)-phenyl]-cyclopropane carboxylic acid]
200 to 2000	COc1ccc(COc2ccc(C3CC3C(=O)O)cc2Cl)c(SC(C)C)n1 (centres unmarked) [Example 109, 2-[3-chloro-4-(2-isopropylsulfanyl-6-methoxy-pyridin-3-ylmethoxy)-phenyl]-cyclopropane carboxylic acid]
200 to 2000	O=C(O)C1CC1Cc1cc(F)c(OCc2cccc(SC3CCCC3)n2)c(F)c1 (centres unmarked) [Example 110, 2-[4-(6-cyclopentylsulfanyl-pyridin-2-ylmethoxy)-3,5-difluoro-benzyl]-cyclopropane carboxylic acid]
< 200	O=C(O)CC1COc2c1cc(F)c(OCc1cccnc1SC1CCC1)c2F (centres unmarked) [Example 111, [6-(2-cyclobutylsulfanyl-pyridin-3-ylmethoxy)-5,7-difluoro-2,3-dihydro-benzofuran-3-yl]-acetic acid]
> 20000	CCCSc1ncccc1COc1ccc(C2CC2C(=O)O)c(C)c1C (centres unmarked) [Example 112, 2-[2,3-dimethyl-4-(2-propylsulfanyl-pyridin-3-ylmethoxy)-phenyl]-cyclopropane carboxylic acid]
> 20000	Cc1c(OCc2cccnc2SC2CCC2)ccc(C2CC2C(=O)O)c1C (centres unmarked) [Example 113, 2-[4-(2-cyclobutylsulfanyl-pyridin-3-ylmethoxy)-2,3-dimethyl-phenyl]-cyclopropane carboxylic acid]
2000 to 20000	Cc1c(OCc2cccc(SC(C)C)n2)ccc(C2CC2C(=O)O)c1C (centres unmarked) [Example 114, 2-[4-(6-isopropylsulfanyl-pyridin-2-ylmethoxy)-2,3-dimethyl-phenyl]-cyclopropane carboxylic acid]
< 200	O=C(O)C1CC1Cc1cc(F)c(OCc2cccc(SC3CCC3)n2)c(F)c1 (centres unmarked) [Example 115, 2-[4-(6-cyclobutylsulfanyl-pyridin-2-ylmethoxy)-3,5-difluoro-benzyl]-cyclopropane carboxylic acid]
200 to 2000	CC(C)Sc1ncccc1COc1c(F)cc(CC2CC2C(=O)O)cc1F (centres unmarked) [Example 116, 2-[3,5-difluoro-4-(2-isopropylsulfanyl-pyridin-3-ylmethoxy)-benzyl]-cyclopropane carboxylic acid]
200 to 2000	O=C(O)CC1CC1c1ccc(OCc2cccc(SC3CCCC3)n2)c(F)c1 (centres unmarked) [Example 120, {2-[4-(6-cyclopentylsulfanyl-pyridin-2-ylmethoxy)-3-fluoro-phenyl]-cyclopropyl}-acetic acid]
< 200	CCCSc1ncccc1COc1ccc(C2CC2CC(=O)O)cc1F (centres unmarked) [Example 121, {2-[3-fluoro-4-(2-propylsulfanyl-pyridin-3-ylmethoxy)-phenyl]-cyclopropyl}-acetic acid]
< 200	O=C(O)Cc1coc2c(F)c(OCc3cccnc3SC3CCCC3)c(F)cc12 [Example 122, [6-(2-cyclopentylsulfanyl-pyridin-3-ylmethoxy)-5,7-difluoro-benzofuran-3-yl]-acetic acid]
< 200	O=C(O)CC1COc2c1cc(F)c(OCc1cccnc1SC1CCCC1)c2F (centres unmarked) [Example 123, [6-(2-cyclopentylsulfanyl-pyridin-3-ylmethoxy)-5,7-difluoro-2,3-dihydro-benzofuran-3-yl]-acetic acid]

Same assay, conditions: CHO-K1 cells expressing Ga16 and hGPR120; Calcium 5 dye fluorescence; numeric value

EC50 [nM]	SMILES
64000	O=C(O)C1CC1c1ccc(OCc2cccnc2SC2CCCC2)c(F)c1 (centres unmarked) [Example 87, 2-[4-(2-cyclopentylsulfanyl-pyridin-3-ylmethoxy)-3-fluoro-phenyl]-cyclopropane carboxylic acid]
57000	O=C(O)C1CC1c1ccc(OCc2cccnc2SC2CCC2)c(F)c1 (centres unmarked) [Example 88, 2-[4-(2-cyclobutylsulfanyl-pyridin-3-ylmethoxy)-3-fluoro-phenyl]-cyclopropane carboxylic acid]
88	CC(Cc1ccc(OCc2cccnc2SC2CCC2)c(Cl)c1)C(=O)O (centres unmarked) [Example 95, 3-[3-chloro-4-(2-cyclobutylsulfanyl-pyridin-3-ylmethoxy)-phenyl]-2-methyl-propionic acid]
108	CCCSc1ncccc1COc1c(F)cc(CC2CC2C(=O)O)cc1F (centres unmarked) [Example 117, 2-[3,5-difluoro-4-(2-propylsulfanyl-pyridin-3-ylmethoxy)-benzyl]-cyclopropane carboxylic acid]
135	Cc1c(OCc2cccnc2SC2CCCC2)ccc2c(CC(=O)O)coc12 [Example 118, [6-(2-cyclopentylsulfanyl-pyridin-3-ylmethoxy)-7-methyl-benzofuran-3-yl]-acetic acid]
91	CC(C)Sc1ncccc1COc1ccc(C2CC2C(=O)O)cc1Cl (centres unmarked) [Example 126, 2-[3-chloro-4-(2-isopropylsulfanyl-pyridin-3-ylmethoxy)-phenyl]-cyclopropane carboxylic acid]
